The nature of data set [1]: Linkage of CTL receptor agonist to aluminum adjuvant (FIG. 2). The class given is physicochemical. The conditions noted are these: aluminum oxyhydroxide. The text has this: However, monosaccharides can be modified by a chemical group including but not limited to fluoride, phosphate, sulfate, or carbonate group which permits a ligand exchange linkage of the molecule to the aluminum-containing adjuvant. Method for modifying saccharides by addition of fluoride, phosphate, sulfate, or carbonate groups is well known in the art (Cantos, et al. Biochem. J. (1993) 289: 155-160; Carbohydrate Chemistry, Royal Society of Chemistry, Ed. R D Guthrie (1968)). This is illustrated in FIG. 2 utilizing mannose as the CTL receptor agonist and aluminum oxyhydroxide. […] However, addition of a phosphate group at the 1 position of mannose (MIP) results in approximately 100% linkage of the CTL agonist to the aluminum adjuvant.
Another method to the increased avidity of the saccharide for the aluminum adjuvant particle is polymerization. For instance the avidity of the saccharide for the aluminum adjuvant particle may be increased by increasing the size of the saccharide by polymerization to produce a polysaccharide. The increase avidity for the aluminum adjuvant is due to the larger number of interactions of a polysaccharide as compared to a monosaccharide to allow for the stable linkage of the polysaccharide agonist to the aluminum adjuvant particle. […]

A short description of data set [2]: Stability of CTL agonist linkage to aluminum oxyhydroxide on exposure to phosphate (FIG. 3A, 3B). The conditions noted are these: 50 mM phosphate pH 7.4 for 30 minutes, absence of antigen. It is filed as physicochemical. The text has this: It is important to maintain the stability of the CTL agonist linkage to the aluminum particle upon exposure to body fluid following administration. Components of interstitial fluid such as phosphate, citrate, and protein have the potential to remove the linkage of the CTL agonist with aluminum-containing adjuvants. The resulting soluble CTL agonist may adversely impact the immune response. FIG. 3A illustrates that MIP as well as mannan maintain approximately 100% linkage with aluminum oxyhydroxide when exposed to 50 mM phosphate pH 7.4 for 30 minutes in the absence of antigen.

Regarding `O=P(O)(O)OC1O[C@H](CO)[C@@H](O)[C@H](O)[C@@H]1O` (stereo partly shown) [MIP, Mannose-1-phosphate], in data set [1], the “linkage of the CTL agonist to the aluminum adjuvant” value is given as “approximately 100%”. Further, in data set [2], the “linkage with aluminum oxyhydroxide maintained” value is reported as “approximately 100%”.
As to mannan, in data set [1], the “linkage of the CTL agonist to the aluminum adjuvant” value was “approximately 100%”. Moreover, the “linkage with aluminum oxyhydroxide maintained” value in data set [2] is listed as “approximately 100%”.

The record behind these values is patent US9216215B2, “Adjuvant system for vaccine adjuvant” (VAXFORM LLC, priority 2010, dated 2015).
